Data taken from patent publication US8030033B2, “Polymorphisms in ABCB1 associated with a lack of clinical response to medicaments” (priority 2004, dated 2011).

Legend:
[1] = system: p-glycoprotein (ABCB1 protein); details: cited from earlier work; for uptake / penetration into the brain of mice dependent on ABCB1 protein: mice with abcb1ab knockout mutation, cited literature; for substrate of p-glycoprotein: from cited literature
[2] = system: p-glycoprotein (abcb1a and abcb1b); test: Drug concentrations in cerebrum and plasma of abcb1ab (-/-) mice compared to wild-type controls after 11 day subcutaneous administration; details: for differences in plasma levels between abcb1ab (-/-) mutant and wildtype littermates: 11 day continuous sub-cutaneous administration; for fold higher concentration in the brain of abcb1ab (-/-) mutant compared to wildtype animals (cerebrum/plasma ratio): 11 day continuous sub-cutaneous administration via osmotic pumps, male mice; for intracerebral concentration regulated by p-glycoprotein: administration for 11 days, mice lacking abcb1a and abcb1b
Protocol: Venlafaxine and o-desmethylvenlafaxine (d-venlafaxine) was obtained from Wyeth-Pharma GmbH (Münster, Germany). […] Protriptyline was purchased from RBI (Massachusetts, USA). All other chemicals were obtained in the purest grade available from Merck (Darmstadt, Germany).
Male abcb1ab(−/−) mice and FVB/N wildtype mice were housed individually and maintained on a 12:12 h light/dark cycle (lights on at 07:00), with food and water ad libitum. Abcb1ab double knockout mice, originally created by A. Schinkel by sequential gene targeting in 129/Ola E14 embryonic stem cells^28 and backcrossed seven times (N7) to FVB/N from the C57BL/6×129 chimera, and FVB/N wildtype mice were received from Taconic (Germantown, USA; FVB/Tac-[KO]Pgy2 N7). A homozygous colony is maintained at the Max-Planck Institute of Psychiatry on the N7 FVB/N background through intercrossing of homozygous mice.
Experimental and extraction procedures were performed as described before^12,26. […] After 11 days, the mice were anesthetized and sacrificed. The dissected organs were homogenized and a liquid-liquid extraction procedure has been carried out with n-hexan/isoamylalcohol (Table 3) in the first step and phosphoric acid in the second.
HPLC measurements were performed as described before^12,26. A Beckman gradient pump, autoinjector, UV detector and a Merck fluorescence detector, were used for the high-performance liquid chromatography analysis. Separations were made on a reversed phase Luna 5μ C18(2) 250×4.6 mm column (Phenomenex, Torrance, USA), 60° C., mobile phase flow 1 ml/min. A mobile phase gradient with acetonitrile was used for the chromatography analysis (Table 3). The substances were determined by UV absorption and fluorescence at the described wavelength (Table 3).
Statistical analysis was carried out the statistic software SPSS 10.0 for windows (Chicago, Ill.). Significance was tested by one-factorial multivariate analyses of variance (MANOVAs). […] As a nominal level of significance α=0.05 was accepted and corrected (reduced according to the Bonferroni procedure) for all a posteriori tests (univariate F-tests) in order to keep the type I error less than or equal to 0.05.

[3] = Plasma concentration of antidepressant drugs in depressed patients according to rs2235015 genotype; format: in vivo, human; details: weeks 4-6 of treatment; rs2235015 GG homozygotes; SEM=51.6
Protocol: All patients were treated with antidepressant drugs within a few days of admission. The type antidepressant medication was not influence by the participation in the study, but chosen freely by the responsible psychiatrist. For all patients plasma concentration of antidepressant medication was monitored to assure clinically efficient drug levels.
Plasma citalopram, mirtazapine, and paroxetine were extracted with a liquid-liquid extraction procedure and than measured after HPLC with UV absorption and fluorescence.
We used a reversed phase Luna 5μ C18(2) 250×4.6 mm column (Phenomenex, Torrance, USA), 60° C., mobile phase flow 1 ml/min. […] The extraction recovery was >90%, and the intra and inter day variation coefficient was <10%.
To detect any genotype dependent differences in antidepressant dose or plasma level, we used a one-way ANOVA with the genotype of rs2235015 as factor.

Row | SMILES | uptake / penetration into the brain of mice dependent on ABCB1 protein [1] | substrate of p-glycoprotein [1] | other results
1 | CN(C)CCC=C1c2ccccc2COc2ccccc21 [doxepin] | enhancement of penetration |  | 
2 | CNCCC(Oc1ccc(C(F)(F)F)cc1)c1ccccc1 (stereo not shown) [fluoxetine] |  | not substrate of p-glycoprotein | 
3 | CN1CCN2c3ncccc3Cc3ccccc3C2C1 (stereo not shown) [mirtazapine] |  |  | differences in cerebrum/plasma ratios between abcb1ab (-/-) mutant and wildtype ([2]; mouse, in vivo): no significant differences
4 | COc1ccc(C(CN(C)C)C2(O)CCCCC2)cc1 (stereo not shown) [venlafaxine] | enhancement of penetration |  | differences in plasma levels between abcb1ab (-/-) mutant and wildtype littermates [2]: no differences; fold higher concentration in the brain of abcb1ab (-/-) mutant compared to wildtype animals (cerebrum/plasma ratio) [2]: 1.7 fold; intracerebral concentration regulated by p-glycoprotein [2]: regulated by p-glycoprotein; mean plasma level of administered antidepressant [3]: 356.5 ng/mL
5 | CN(C)CCCC1(c2ccc(F)cc2)OCc2cc(C#N)ccc21 (stereo not shown) [citalopram] | involved in the uptake |  | 
6 | CNCCC=C1c2ccccc2CCc2ccccc21 [nortriptyline] |  | substrate of p-glycoprotein | 
7 | Fc1ccc([C@@H]2CCNC[C@H]2COc2ccc3c(c2)OCO3)cc1 [paroxetine] | enhancement of penetration | identified as a substrate of p-glycoprotein | 
8 | CC(CN(C)C)CN1c2ccccc2CCc2ccccc21 (stereo not shown) [trimipramine] | involved in the uptake |  | 
9 | CN(C)CC(c1ccc(O)cc1)C1(O)CCCCC1 (stereo not drawn) [d-venlafaxine, o-desmethylvenlafaxine] |  |  | differences in plasma levels between abcb1ab (-/-) mutant and wildtype littermates [2]: no differences; fold higher concentration in the brain of abcb1ab (-/-) mutant compared to wildtype animals (cerebrum/plasma ratio) [2]: 4.1 fold; intracerebral concentration regulated by p-glycoprotein [2]: regulated by p-glycoprotein
